This is an account of results in a melting point compilation (Tetko et al.; mined from patent text by program, amines drawn as free bases though some values may be those of a salt).

A value given as a limit tells only on which side of the number the result lay.

As usually defined, the melting point is the temperature of the solid-liquid transition. `CSC(C)(C)C(=O)N[C@@H](CSSC[C@H](NC(=O)C(C)(C)SC)C(=O)O)C(=O)O` had a melting point of 128 to 129 °C.
The same measure for `CC(C)Cn1c(CNC(=O)OC(C)(C)C)c(-c2cccs2)c2cc(C(=O)O)ccc2c1=O`: 224 to 226 °C; for `N#Cc1nn(-c2c(Cl)cc(C(F)(F)F)cc2Cl)c(N)c1-c1ccsc1`: 210 to 212 °C.
The same measure for `CCN(CC)C(=O)n1ccc(S(=O)(=O)c2c(C)cccc2OC)n1`: 71 to 73 °C; for `Cc1ccc(-c2c(Cl)nc(C#N)n2O)cc1`: 212 to 215 °C.
For `BrCc1ccccc1Oc1ccc(Br)cc1`, the melting point was 56 to 58 °C.
In the case of `CCCO[C@@H](Cc1ccc(OCCc2nc(-c3ccc(-c4ccccc4)cc3)oc2C)c2ccccc12)C(=O)O` it was 151 to 154 °C; in that of `CC(=O)OC1CCCc2cnc3ccccc3c21` (centres undefined), 128 to 129 °C.
In the case of `COCCNC(=O)c1ccnc(-c2cccc3cc(Cc4cccc(C(F)(F)F)c4)sc23)c1` it was 108 to 109 °C.
In the case of `COc1cccc(-c2cccc3c2OC(COS(=O)(=O)c2ccc(C)cc2)C3)c1` (centres undefined) it was 141 to 142 °C.
In the case of `O=C1CNCC2c3ccccc3CCN12` (centres undefined), the melting point lay in the range of 119 to 120 °C.
The same measure for `Cc1ccc(-c2cc(C=O)nn2-c2ccc(S(N)(=O)=O)cc2)cc1`: 196 to 198 °C; for `CC(C)(CO)NS(=O)(=O)c1cc(NC(=O)c2cnn3c(C(F)F)cc(-c4ccc(C(F)(F)F)cc4)nc23)c(Cl)s1`: 233 °C.
In the case of `NS(=O)(=O)c1cc2[nH]ccc2cc1F` it was 181 to 182 °C.
As for `CCOC(=O)CCCCCC=C(NCCC(O)C1CCCCC1)C(=O)OCC` (centres undefined), the melting point lay within 97 to 99 °C.
The same measure for `O=C1OC(=O)c2c1cccc2-c1ccccc1`: 148 to 149 °C; for `CC(=O)N1c2ccccc2Sc2nccnc21`: 174 to 175 °C; for `Fc1cccc(F)c1-c1nc2ccccc2n1Cc1ccccc1`: 124 °C.
In the case of `COc1cc(I)cc2c(O)c(C(=O)NCc3ccc(Cl)cc3)cnc12` it was 241 to 243 °C; in that of `CC(C)[C@H](NC(=O)OC(C)(C)C)C(=O)NC1CCC(Nc2cccc3c2C(=O)c2ccccc2C3=O)CC1` (some centres undefined), 179 °C.
In the case of `N=C(NO)c1ccccc1-n1cnc2cnc3ccc(-c4ccccc4)cc3c21` it was 249 to 251 °C.
With `COc1cc(OC)nc(Oc2ccc3ccccc3c2C=O)n1`, the melting point fell in the range of 123 to 125 °C.
On to `Nc1ccc(Nc2c(NCc3ccccc3)cc(C(=O)O)cc2S(N)(=O)=O)cc1`, for which the melting point is 244 °C.
The same measure for `CCCOc1ccccc1-c1nc2cc3ncn(CC4CCCCC4)c3cc2c(=O)[nH]1`: 223 to 226 °C; for `O=S(=O)(N=CN1CCOCC1)c1nc(-c2ccccc2)ns1`: 185 to 187 °C; for `COC(=O)c1cccc(-c2c(C#N)nn(-c3c(Cl)cc(C(F)(F)F)cc3Cl)c2N)c1`: 214 to 216 °C.
Take `Cc1ccc2c(c1)C=Cc1cc(C)ccc1C2c1cn(-c2ccnc(NC(Cc3c[nH]cn3)C(=O)O)n2)c(=O)[nH]c1=O` (centres undefined): the melting point came out at 223 °C.
In the case of `CCCCCCC1(CCn2ccnc2)SCCS1` it was 110 to 116 °C.
`Cn1cnc(COc2nc3c(cc2C(C)(C)C)nnn3-c2ccccc2)n1` registered a melting point of 179 to 180 °C.
As for `COc1cc2c(cc1S(C)(=O)=O)nc(C)n2C(C)C`, the melting point is 161 to 165 °C.
As to `Cc1ccccc1[C@H]1O[C@H](CC(=O)O)C(=O)N(CC(C)C)c2ccccc21` (relative stereo), the melting point is 192 to 195 °C.
Take `OC1(C=Cc2ccc(-c3cccnc3)cc2)CN2CCC1CC2` (centres undefined): the melting point was in the range of 195 to 198 °C.
For `CCOC(=O)c1cnccc1NC(=O)Cc1c(F)cccc1Cl`, the melting point lay in the range of 114 to 116 °C.
In the case of `O=C(O)Cc1ccc(OCCC(c2ccccc2)(c2ccccc2)c2ccccc2)cc1` it was 148 to 149 °C; in that of `COc1ccc(C2CC(=O)N(C(=S)NCc3ccc(F)cc3)N2C)cc1OC1CCCC1` (centres undefined), 48 to 51 °C; in that of `Cc1cn(C(C)C(=O)N2CCCC2)nc1-c1ccccc1` (centres undefined), 72 to 74 °C.
The same measure for `Cn1ccc(O)cc1=O`: 165 to 169 °C.
In the case of `COc1ccc(OC)c2c1C(=O)c1c-2[nH]c2ccc(O)cc12` it was > 260 °C; in that of `CCOC(=O)COc1ccc([N+](=O)[O-])cc1C(F)(F)F`, 45 to 46 °C; in that of `CSC(=S)c1cccc([N+](=O)[O-])c1`, 38 °C.
Take `CCOc1cc(CCC(=O)O)ccc1OCCCc1cn(-c2ccc(C(F)(F)F)cn2)nc1OCC`: the melting point is 114 to 115 °C.
The same measure for `CCc1cc(Oc2ccc(NC(=O)Nc3ccc(C)cc3)cc2)ncn1`: 160 to 162 °C; for `CCN1CCC/C1=C\c1nc(-c2ccc(F)cc2)c(-c2ccncc2)n1CCCc1ccccc1`: 127 to 128 °C.
In the case of `N#CCCN(N)c1nc2cccc(Cl)c2o1` it was 114 to 115 °C.
`COC(=O)CCCCC(=O)N(O)c1ccc2ccccc2c1O` showed a melting point of 111 to 113 °C.
The same measure for `O=C(O)c1cc2cc(Br)cc(Br)c2nc1NC(Cc1ccccc1)C(=O)O` (centres undefined): 115 to 117 °C.
In turn, `CS(=O)c1cccc2c1C(=O)N1CCCC1c1c(C(=O)OC(C)(C)C)ncn1-2` (centres undefined) had a melting point of 224 to 225 °C.
The same measure for `O=C(c1ccc(O)cc1)c1ccc(O)c(Cl)c1Cl`: 208 to 210 °C; for `COc1cc(Cc2cnc(N)nc2N)cc(OC(C)C(C)=O)c1OC` (centres undefined): 168 °C; for `COCc1ccccc1-c1ccc(C(=O)O)cc1`: 164 to 166 °C.
The same measure for `O=[N+]([O-])c1ccc2c(ccn2Cc2ccncc2)c1`: 134 to 136 °C; for `O=c1[nH]c2ncc(-c3ccnc(O)c3)nc2n1CC1CCCCC1`: 311 to 313 °C; for `C=CCc1cc(C=C(C(=O)OCC)C(=O)OCC)ccc1OC`: 69 °C.
For `C=Cc1cc2cc(OC)ccc2n1C`, the melting point was in the range of 87 to 89 °C.
The same measure for `COc1ccc(C2=NNS(=O)(=O)Cc3cc4nsnc4cc32)cc1OC`: 228 to 230 °C; for `CC12C=CC(=O)C=C1CCC1C2CCC2(C)C(=O)CCC12` (centres undefined): 138 to 139 °C; for `COc1ccc2nc(NC(=O)C(CC3CCCC3)c3ccc(S(=O)(=O)NCc4ccccc4)cc3)sc2n1` (centres undefined): 237 to 240 °C.
In the case of `O=S(=O)(c1ccc(Cl)cc1)N1CCCC1c1ccsc1` (racemic) it was 120 °C; in that of `COc1ccc(C(=O)Cc2c(Cl)cncc2Cl)c2c1OCC2CC(=O)OCc1ccccc1` (centres undefined), 120 to 122 °C.
The same measure for `CC(C)Cc1nc2ccc(C(N)=O)cc2c(-c2ccccc2)c1CN`: 128 to 129 °C; for `O=C1NC(=O)C(=Cc2ccc(C(=O)CCc3ccccc3)nc2)S1`: > 250 °C; for `Cc1ccc(C23CC(C2)C(=O)N(C)C3=O)cc1`: 138 to 140 °C.
`CCOC(=O)c1cccc(-c2ccc3c(n2)C(Oc2ccc(Cl)cc2Cl)CC3)c1` (centres undefined) registered a melting point of 129 to 130 °C.
Turning to `O=[N+]([O-])c1ccc2oc(CCC(F)(F)F)cc2c1`, the melting point lay in the range of 70 to 71 °C.
As to `C=CCOC(=O)c1cccc(NC(=O)NCC(=O)Nc2ccccc2C(=O)c2cccs2)c1`, the melting point was 140 to 141 °C.
As for `COC(=O)C1(O)CCCC(=O)C1N=Nc1ccccc1` (centres undefined), the melting point turned out to be 144 °C.
In the case of `COc1cc2ncnc(N3CCc4ccc(-c5ccccc5)cc43)c2cc1OC`, the melting point fell in the range of 175 to 177 °C.
In the case of `COc1ccccc1OC(=O)C(=O)Oc1ccccc1OC` it was 123 to 126 °C; in that of `CCOC(=NO)C(=O)C1=Nc2ccccc2C(=O)N(C)C1`, 173 to 174 °C.
In turn, `CC1(C)Oc2cc3nonc3cc2C(N2CCC(O[N+](=O)[O-])CC2=O)C1O` (centres undefined) came in with a melting point of 186 to 189 °C.
`O=[N+]([O-])C=C(NCc1ccc(Cl)nc1)NCc1ccc(Cl)nc1` returned a melting point of 238 to 240 °C.
In the case of `CCC(=O)N1CCC(NC(=O)N[C@@H]2C[C@H]2c2ccccc2)CC1` (relative stereo) it was 155 to 158 °C; in that of `O=C(c1cc(C(F)(F)F)cc(C(F)(F)F)c1)N1CCC2(CC1)C(=O)NCN2c1ccccc1Cl`, 157 to 159 °C; in that of `CCc1cc(NCc2ccc3oc(-c4ccccc4C#N)c(Br)c3c2)n2nccc2n1`, 186 to 194 °C.
The molecule `CCOC(=O)c1cc(-c2ccc(C#N)cc2)[nH]c1N` returned a melting point of 228 to 229 °C.
In turn, `CN(C)CCCCCNc1nc2cc(Cl)c(Cl)cc2nc1-c1ccccn1` came in with a melting point of 100 to 102 °C.
In the case of `CCCCCC(CC(=O)O)c1cc(C=O)c(OC)cc1OC` (centres undefined) it was 110 to 112 °C.
`O=C(Cc1cccs1)NC1CN(C(C(=O)O)c2ccc(OC(=O)c3ccccc3)cc2)C1=O` (centres undefined) registered a melting point of 129 to 131 °C.
The same measure for `O=C(Cc1ccc(Cl)cc1)Nc1cccc(-n2nc(C(F)(F)F)cc2C(F)(F)F)c1`: 209 to 211 °C; for `NS(=O)(=O)c1cc2c(s1)SC(CCO)CN2` (centres undefined): 145 to 147 °C.
The same measure for `CC1CCC(N2c3ccccc3Oc3ccccc32)=N1` (centres undefined): 135 to 137 °C; for `Cc1ccc(OC2SCC(O)C(O)C2O)c(-c2c(C)noc2C)n1` (centres undefined): 70 to 84 °C.
The same measure for `COc1cc(C(C)=O)ccc1NCCCN1CCC(c2noc3cc(F)ccc23)CC1`: 96 to 98 °C; for `Cn1c(CC#N)ccc1C(=O)c1cccc(Cl)c1`: 122 to 127 °C; for `CNC(=O)Oc1cccc(C2CCCN2C(=O)c2ccccc2)c1` (centres undefined): 117 to 121 °C.
For the molecule `O=C(/C=C/C=C(c1cccc(F)c1)c1cccc(F)c1)Oc1ccc([N+](=O)[O-])cc1`, the melting point is 130 °C.
In the case of `COc1ccc(-c2c([N+](=O)[O-])cnc3ccc(Cl)cc23)c(OC)c1OC` it was 114 to 116 °C; in that of `Cc1cccc(C)c1OCC(C)NCC(O)c1cc(C(N)=O)cs1` (centres undefined), 125 to 137 °C; in that of `CCN(CC)CCOCCc1ccc2c(c1)OCO2`, 83 to 84 °C.
